From patent US11479539B2, “Small molecule modulators of the BTB domain of Keap1” (MedImmune Limited, priority 2017, dated 2022)
pEC50: −log10 of the molar value.

Target: Keap1 (Homo sapiens (Human), UniProt Q14145)
Assay: HEK293 ARE luciferase assay
Assay type: cell-based
Conditions: HEK-293 ARE firefly luciferase transiently transfected cells; 18 h incubation; mean of 1 to 20 individual measurements
How it was run: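 Transiently transfected HEK-293 ARE firefly luciferase cells (10,000/well, DMEM with 10% FCS) exposed to compound, 10-point curve from 100 μM top, 0.3% DMSO, 18 h at 37 °C. SteadyGlo luminescence; activity normalised to 30 μM tBHQ (stimulator) and DMSO (neutral), activity threshold 50; means of 1-20 measurements.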

Keap1, sequence (Q14145 whole entry): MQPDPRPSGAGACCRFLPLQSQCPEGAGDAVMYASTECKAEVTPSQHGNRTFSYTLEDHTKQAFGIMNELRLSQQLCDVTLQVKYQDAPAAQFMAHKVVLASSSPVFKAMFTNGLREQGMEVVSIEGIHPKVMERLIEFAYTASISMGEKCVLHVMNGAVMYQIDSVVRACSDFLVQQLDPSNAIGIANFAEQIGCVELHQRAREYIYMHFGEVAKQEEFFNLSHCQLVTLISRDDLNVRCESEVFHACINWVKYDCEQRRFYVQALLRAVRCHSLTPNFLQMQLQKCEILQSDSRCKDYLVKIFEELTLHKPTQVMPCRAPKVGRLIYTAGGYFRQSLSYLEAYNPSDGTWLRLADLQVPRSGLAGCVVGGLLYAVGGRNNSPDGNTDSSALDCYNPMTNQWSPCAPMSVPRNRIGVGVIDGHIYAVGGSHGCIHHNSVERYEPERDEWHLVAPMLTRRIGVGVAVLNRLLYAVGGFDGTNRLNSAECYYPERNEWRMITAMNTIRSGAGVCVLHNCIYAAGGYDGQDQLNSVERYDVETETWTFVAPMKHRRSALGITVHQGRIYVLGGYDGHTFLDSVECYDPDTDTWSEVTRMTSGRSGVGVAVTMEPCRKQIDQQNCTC

Row | Compound | pEC50
1 | CO[C@]1(c2ncc(F)cc2C(F)F)C=C(C#N)C(=O)C(C)(C)C1 [Compound 42, (3S)-3-[3-(difluoromethyl)-5-fluoropyridin-2-yl]-3-methoxy-5,5-dimethyl-6-oxocyclohex-1-ene-1-carbonitrile] | 7.48
2 | CO[C@]1(c2ncc(F)cc2-c2ccc(=O)n(C)c2)C=C(C#N)C(=O)C(C)(C)C1 [Compound 74, (S)-3-[5-fluoro-3-(1-methyl-6-oxo-3-pyridyl)-2-pyridyl]-3-methoxy-5,5-dimethyl-6-oxo-cyclohexene-1-carbonitrile] | 7.82
3 | COC1(c2ncc(F)cc2C)C=C(C#N)C(=O)C2(CCCC2)C1 (stereo not shown) [Compound 149, 9-(5-fluoro-3-methylpyridin-2-yl)-9-methoxy-6-oxospiro[4.5]dec-7-ene-7-carbonitrile] | 6.70
4 | COC1(c2ncc(F)cc2-c2cnn3ccccc23)C=C(C#N)C(=O)C(C)(C)C1 (single isomer, unassigned) [Compound 219, 3-[5-fluoro-3-(pyrazolo[1,5-a]pyridin-3-yl)pyridin-2-yl]-3-methoxy-5,5-dimethyl-6-oxocyclohex-1-ene-1-carbonitrile] | 8.30
5 | COC1(c2ncc(F)cc2-c2cncc(OC(F)F)c2)C=C(C#N)C(=O)C(C)(C)C1 (single isomer, unassigned) [Compound 223, 3-[5′-(difluoromethoxy)-5-fluoro[3,3′-bipyridin]-2-yl]-3-methoxy-5,5-dimethyl-6-oxocyclohex-1-ene-1-carbonitrile] | 7.85
6 | COC1(c2ncc(F)cc2-c2cncc(C#N)c2)C=C(C#N)C(=O)C(C)(C)C1 (stereo not shown) [Compound 184, 2′-(3-cyano-1-methoxy-5,5-dimethyl-4-oxocyclohex-2-en-1-yl)-5′-fluoro[3,3′-bypyridine]-5-carbonitrile] | 6.92
7 | COC1(c2ccc(C)nc2)C=C(C#N)C(=O)C(C)(C)C1 (stereo not shown) [Compound 16, 3-methoxy-5,5-dimethyl-3-(6-methyl-3-pyridyl)-6-oxo-cyclohexene-1-carbonitrile] | 6.18
8 | COC1(c2ccc(F)cn2)C=C(C#N)C(=O)C2(CCCC2)C1 (single isomer, unassigned) [Compound 67, 9-(5-fluoropyridin-2-yl)-9-methoxy-6-oxospiro[4.5]dec-7-ene-7-carbonitrile] | 6.62
9 | COC1(c2ncccc2-c2ccccc2)C=C(C#N)C(=O)C(C)(C)C1 (stereo not shown) [Compound 7, 3-methoxy-5,5-dimethyl-6-oxo-3-(3-phenyl-2-pyridyl)cyclohexene-1-carbonitrile] | 7.09
10 | COC1(c2cccc(-c3cnn(C)c3)n2)C=C(C#N)C(=O)C2(CC2)C1 (stereo not shown) [Compound 126, 7-methoxy-7-[6-(1-methyl-1H-pyrazol-4-yl)pyridin-2-yl]-4-oxospiro[2.5]oct-5-ene-5-carbonitrile] | 7.07
11 | COC1(c2ncc(C(F)(F)F)cn2)C=C(C#N)C(=O)C(C)(C)C1 (single isomer, unassigned) [Compound 211, 3-methoxy-5,5-dimethyl-6-oxo-3-[5-(trifluoromethyl)pyrimidin-2-yl]cyclohex-1-ene-1-carbonitrile] | 8.40
12 | COC1(c2ncc(F)cc2-c2cc[nH]c(=O)c2)C=C(C#N)C(=O)C(C)(C)C1 (stereo not shown) [Compound 192, 3-(5-fluoro-2′-oxo[1′,2′-dihydro[3,4′-bipyridine]]-2-yl)-3-methoxy-5,5-dimethyl-6-oxocyclohex-1-ene-1-carbonitrile] | < 5.00
13 | COC1(c2ncc(F)cc2-c2ccn3ncnc3c2)C=C(C#N)C(=O)C(C)(C)C1 (stereo not shown) [Compound 190, 3-[5-fluoro-3-([1,2,4]triazolo[1,5-a]pyridin-7-yl)pyridin-2-yl]-3-methoxy-5,5-dimethyl-6-oxocyclohex-1-ene-1-carbonitrile] | 5.77
14 | COC1(c2nc(C)c(Br)s2)C=C(C#N)C(=O)C(C)(C)C1 (single isomer, unassigned) [Compound 98, 3-(5-bromo-4-methyl-1,3-thiazol-2-yl)-3-methoxy-5,5-dimethyl-6-oxocyclohex-1-ene-1-carbonitrile] | 7.10
15 | COC1(c2ncc(F)cc2OC(F)F)C=C(C#N)C(=O)C(C)(C)C1 (stereo not shown) [Compound 174, 3-[3-(difluoromethoxy)-5-fluoropyridin-2-yl]-3-methoxy-5,5-dimethyl-6-oxocyclohex-1-ene-1-carbonitrile] | 7.39
16 | COC1(c2ncc(F)cc2-c2cncc(C3CC3)c2)C=C(C#N)C(=O)C(C)(C)C1 (single isomer, unassigned) [Compound 232, 3-(5′-cyclopropyl-5-fluoro[3,3′-bipyridin]-2-yl)-3-methoxy-5,5-dimethyl-6-oxocyclohex-1-ene-1-carbonitrile] | 7.64
17 | COC1(c2cccc(-c3cncnc3)n2)C=C(C#N)C(=O)C2(CC2)C1 (stereo not shown) [Compound 127, 7-methoxy-4-oxo-7-[6-(pyrimidin-5-yl)pyridin-2-yl]spiro[2.5]oct-5-ene-5-carbonitrile] | 6.57

Row | Compound | pEC50
18 | COC1(c2ncc(F)cc2-c2ccn3nc(C)nc3c2)C=C(C#N)C(=O)C(C)(C)C1 (single isomer, unassigned) [Compound 229, 3-[5-fluoro-3-(2-methyl[1,2,4]triazolo[1,5-a]pyridin-7-yl)pyridin-2-yl]-3-methoxy-5,5-dimethyl-6-oxocyclohex-1-ene-1-carbonitrile] | 8.00
19 | COc1ncc(C)cc1-c1cc(F)cnc1C1(OC)C=C(C#N)C(=O)C(C)(C)C1 (single isomer, unassigned) [Compound 234, 3-(5-fluoro-2′-methoxy-5′-methyl[3,3′-bipyridin]-2-yl)-3-methoxy-5,5-dimethyl-6-oxocyclohex-1-ene-1-carbonitrile] | 8.05
20 | COC1(c2cccc(-c3c(C)noc3C)n2)C=C(C#N)C(=O)C(C)(C)C1 (stereo not shown) [Compound 105, 3-(6-(3,5-dimethylisoxazol-4-yl)pyridin-2-yl)-3-methoxy-5,5-dimethyl-6-oxocyclohex-1-ene-1-carbonitrile] | 7.44
21 | C/C=C/c1cc(F)cnc1C1(OC)C=C(C#N)C(=O)C(C)(C)C1 (single isomer, unassigned) [Compound 94, 3-{5-fluoro-3-[(1E)-prop-1-en-1-yl]pyridin-2-yl}-3-methoxy-5,5-dimethyl-6-oxocyclohex-1-ene-1-carbonitrile] | 7.68
22 | COC1(c2ncc(F)cc2-c2cncc(Cl)c2)C=C(C#N)C(=O)C(C)(C)C1 (stereo not shown) [Compound 185, 3-(5′-chloro-5-fluoro[3,3′-bypyridin]-2-yl)-3-methoxy-5,5-dimethyl-6-oxocyclohex-1-ene-1-carbonitrile] | 8.10
23 | COC1(c2ncc(F)cc2-c2cncc(C(F)(F)F)c2)C=C(C#N)C(=O)C(C)(C)C1 (single isomer, unassigned) [Compound 215, 3-[5-fluoro-5′-(trifluoromethyl)[3,3′-bipyridin]-2-yl]-3-methoxy-5,5-dimethyl-6-oxocyclohex-1-ene-1-carbonitrile] | 7.82
24 | COC1(c2ncc(F)cc2-c2cnn3c2CCC3)C=C(C#N)C(=O)C(C)(C)C1 (single isomer, unassigned) [Compound 231, 3-[3-(5,6-dihydro-4H-pyrrolo[1,2-v]pyrazol-3-yl)-5-fluoropyridin-2-yl]-3-methoxy-5,5-dimethyl-6-oxocyclohex-1-ene-1-carbonitrile] | 7.80
25 | COC1(c2ncc(F)cc2-c2cnn(C3CC3)c2)C=C(C#N)C(=O)C(C)(C)C1 (single isomer, unassigned) [Compound 72, 3-[3-(1-cyclopropyl-1H-pyrazol-4-yl)-5-fluoropyridin-2-yl]-3-methoxy-5,5-dimethyl-6-oxocyclohex-1-ene-1-carbonitrile] | 8.22
26 | COC1(c2cccc(-c3ccnn3C)n2)C=C(C#N)C(=O)C2(CC2)C1 (stereo not shown) [Compound 129, 7-methoxy-7-[6-(1-methyl-1H-pyrazol-5-yl)pyridin-2-yl]-4-oxospiro[2.5]oct-5-ene-5-carbonitrile] | 6.87
27 | COC1(c2ncc(F)cc2-c2ccnc(C)c2)C=C(C#N)C(=O)C(C)(C)C1 (stereo not shown) [Compound 170, 3-(5-fluoro-2′-methyl[3,4′-bipyridin]-2-yl)-3-methoxy-5,5-dimethyl-6-oxocyclohex-1-ene-1-carbonitrile] | 7.92
28 | COC1(c2ncc(F)cc2-c2ccnc(C)c2C)C=C(C#N)C(=O)C(C)(C)C1 (stereo not shown) [Compound 175, 3-(5-fluoro-2′,3′-dimethyl[3,4′-bipyridin]-2-yl)-3-methoxy-5,5-dimethyl-6-oxocyclohex-1-ene-1-carbonitrile] | 6.76
29 | COC1(c2ncc(F)cc2-c2sc(C)nc2C)C=C(C#N)C(=O)C(C)(C)C1 (stereo not shown) [Compound 195, 3-[3-(2,4-dimethyl-1,3-thiazol-5-yl)-5-fluoropyridin-2-yl]-3-methoxy-5,5-dimethyl-6-oxocyclohex-1-ene-1-carbonitrile] | 5.89
30 | COC1(c2nc(C)cs2)C=C(C#N)C(=O)C2(CC2)C1 (stereo not shown) [Compound 140, 7-methoxy-7-(4-methyl-1,3-thiazol-2-yl)-4-oxospiro[2.5]oct-5-ene-5-carbonitrile] | 6.85
31 | COC1(c2ncc(F)cc2-c2cncc(C(F)(F)F)c2)C=C(C#N)C(=O)C(C)(C)C1 (stereo not shown) [Compound 186, 3-[5-fluoro-5′-(trifluoromethyl)[3,3′-bypyridin]-2-yl]-3-methoxy-5,5-dimethyl-6-oxocyclohex-1-ene-1-carbonitrile] | 7.12
32 | COC1(c2ccccn2)C=C(C#N)C(=O)C2(CC2)C1 (stereo not shown) [Compound 135, 7-methoxy-4-oxo-7-(pyridin-2-yl)spiro[2.5]oct-5-ene-5-carbonitrile] | 6.61
33 | COC1(c2cccc(C3CC3)n2)C=C(C#N)C(=O)C(C)(C)C1 (stereo not shown) [Compound 109, 3-(6-cyclopropylpyridin-2-yl)-3-methoxy-5,5-dimethyl-6-oxocyclohex-1-ene-1-carbonitrile] | 6.73
34 | COC1(c2ccc(-c3cnn(C)c3)cn2)C=C(C#N)C(=O)C(C)(C)C1 (stereo not shown) [Compound 115, 3-methoxy-5,5-dimethyl-3-[5-(1-methyl-1H-pyrazol-4-yl)pyridin-2-yl]-6-oxocyclohex-1-ene-1-carbonitrile] | 6.97
